Results taken from ChEMBL document CHEMBL4819154, “Discovery of quinuclidine modulators of cellular progranulin” (Bioorg Med Chem Lett, 2021).
Converted amounts (≈) assume the structure as drawn.

Experiments:
[1] = Increase of PGRN level in mouse microglial BV-2 cell relative to control; type: functional
[2] = Oral bioavailability in rat; type: ADME, organism-based; conditions: in vivo, dose 10 mg/kg
[3] = Intrinsic clearance in human hepatocytes; type: ADME, cell-based, Hepatocyte
[4] = Protein binding in rat assessed as unbound fraction; type: ADME
[5] = Apparent permeability from apical to basolateral side in dog MDCK-MDR1 cells; type: ADME, cell-based, Canis lupus familiaris
[6] = Aqueous solubility of compound in pH 7.4 PBS measured; type: physicochemical
[7] = Half life in rat hepatocytes; type: ADME, cell-based, Hepatocyte
[8] = Oral bioavailability in mouse; type: ADME, organism-based; conditions: in vivo, dose 10 mg/kg
[9] = Protein binding in rat brain assessed as unbound fraction; type: ADME, tissue-based
[10] = Protein binding in mouse assessed as unbound fraction; type: ADME
[11] = Unbound partition coefficient of the compound in rat incubated for 8 hrs; type: ADME; conditions: brain, read-out: K(p,uu,brain)
[12] = Half life in po dosed rat; type: ADME, organism-based; conditions: in vivo
[13] = Cmax in rat; type: ADME; conditions: in vivo
[14] = target: Muscarinic acetylcholine receptor M3 (Homo sapiens, UniProt P20309); assay: Antagonist activity at muscarinic M3 receptor (unknown origin)
Sequence of Muscarinic acetylcholine receptor M3 (P20309 whole entry): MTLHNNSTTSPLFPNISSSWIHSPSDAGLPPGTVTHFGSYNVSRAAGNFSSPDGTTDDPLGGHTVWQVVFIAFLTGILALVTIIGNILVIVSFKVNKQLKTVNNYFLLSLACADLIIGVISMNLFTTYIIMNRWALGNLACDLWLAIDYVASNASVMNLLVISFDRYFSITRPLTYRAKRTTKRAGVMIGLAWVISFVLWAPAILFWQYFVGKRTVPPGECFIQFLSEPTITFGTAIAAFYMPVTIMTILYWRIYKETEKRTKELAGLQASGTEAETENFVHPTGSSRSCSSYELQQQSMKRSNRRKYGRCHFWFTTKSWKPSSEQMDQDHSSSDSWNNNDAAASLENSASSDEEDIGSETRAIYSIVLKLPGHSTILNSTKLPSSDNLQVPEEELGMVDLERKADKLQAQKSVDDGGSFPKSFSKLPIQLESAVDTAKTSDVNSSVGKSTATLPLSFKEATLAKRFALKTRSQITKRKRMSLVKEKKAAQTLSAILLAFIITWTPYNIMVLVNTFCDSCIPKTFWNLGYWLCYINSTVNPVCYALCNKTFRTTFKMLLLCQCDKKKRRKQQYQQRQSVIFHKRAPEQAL

[15] = Half life in iv dosed rat; type: ADME, organism-based; conditions: in vivo
[16] = Protein binding in human assessed as unbound fraction; type: ADME
[17] = Volume of distribution at steady state in rat; type: ADME; conditions: in vivo, read-out: Vdss
[18] = Half life in human hepatocytes; type: ADME, cell-based, Hepatocyte
[19] = Half life in po dosed mouse; type: ADME, organism-based; conditions: in vivo
[20] = Intrinsic clearance in cynomolgus monkey hepatocytes; type: ADME, cell-based, Macaca fascicularis, Hepatocyte
[21] = Protein binding in mouse brain assessed as unbound fraction; type: ADME, tissue-based
[22] = Clearance in mouse; type: ADME, organism-based; conditions: in vivo
[23] = Volume of distribution at steady state in mouse; type: ADME, organism-based; conditions: in vivo, read-out: Vdss
[24] = Half life in cynomolgus monkey hepatocytes; type: ADME, cell-based, Macaca fascicularis, Hepatocyte
[25] = Clearance in rat; type: ADME; conditions: in vivo
[26] = Unbound partition coefficient of the compound in mouse incubated for 8 hrs; type: ADME; conditions: brain, read-out: K(p,uu,brain)
[27] = Half life in iv dosed mouse; type: ADME, organism-based; conditions: in vivo
[28] = Cmax in mouse; type: ADME, organism-based; conditions: in vivo
[29] = Half life in iv dosed cynomolgus monkey; type: ADME, organism-based, Macaca fascicularis; conditions: in vivo
[30] = Clearance in cynomolgus monkey; type: ADME, Macaca fascicularis; conditions: in vivo, dose 1 mg/kg
[31] = Oral bioavailability in cynomolgus monkey; type: ADME, organism-based, Macaca fascicularis; conditions: in vivo, dose 10 mg/kg
[32] = Protein binding in cynomolgus monkey assessed as unbound fraction; type: ADME, Macaca fascicularis
[33] = Half life in po dosed cynomolgus monkey; type: ADME, organism-based, Macaca fascicularis; conditions: in vivo
[34] = Volume of distribution at steady state in cynomolgus monkey; type: ADME, Macaca fascicularis; conditions: in vivo, read-out: Vdss
[35] = Cmax in cynomolgus monkey; type: ADME, Macaca fascicularis; conditions: in vivo
[36] = Unbound partition coefficient of the compound in cynomolgus monkey incubated for 8 hrs; type: ADME, cell-free, Macaca fascicularis, Brain/Plasma; conditions: brain, read-out: K(p,uu,brain)

O=C(OCC1CN2CCC1CC2)N1CCc2ccccc2[C@@H]1c1ccc(F)cc1 (some centres undefined)
EC50 [1]: 1.99 µM

O=C(OC1CN2CCC1CC2)N1CCc2ccccc2[C@@H]1c1ccc(OC(F)(F)F)cc1 (some centres undefined)
EC50 [1]: 2.6 µM

O=S(=O)(CC1CN2CCC1CC2)N1CCc2ccccc2[C@@H]1c1ccc(F)cc1 (some centres undefined)
EC50 [1]: 1.7 µM

CS(=O)(=O)c1ccc([C@H]2c3ccccc3CCN2C(=O)OC2CN3CCC2CC3)cc1 (some centres undefined)
EC50 [1]: > 10 µM

O=S(=O)(NC1CN2CCC1CC2)N1CCc2ccccc2[C@@H]1c1ccc(F)cc1 (some centres undefined)
EC50 [1]: > 10 µM

O=C(OC1CN2CCC1CC2)N1CCc2ccccc2[C@@H]1c1ccc(F)cc1 (some centres undefined)
bioavailability [2]: 16%
CLH [3]: 0.023 mL/min/kg
fraction unbound [4]: 0.086
Papp A→B [5]: 7.59 ×10⁻⁶ cm/s
solubility [6]: 1990 µM (≈ 757 µg/mL)
half-life [7]: 29 min
bioavailability [8]: 64%
EC50 [1]: 0.257 µM
fraction unbound [9]: 0.008
fraction unbound [10]: 0.02
Kp uu at 8 h [11]: 0.26
half-life [12]: 2.1 min
Cmax [13]: 37 nM
IC50 [14]: 17 µM
half-life [15]: 1.9 min
fraction unbound [16]: 0.06
Vd [17]: 4.65 L/kg
half-life [18]: > 240 min
half-life [19]: 4.1 min
CLH [20]: 0.0698 mL/min/kg
fraction unbound [21]: 0.008
clearance [22]: 44.2 mL/min/kg
Vd [23]: 4.91 L/kg
half-life [24]: 10 min
clearance [25]: 198 mL/min/kg
Kp uu at 8 h [26]: 1.08
half-life [27]: 2.1 min
Cmax [28]: 28 nM

O=C(OC1CN2CCC1CC2)N1CCc2ccccc2[C@@H]1c1cccc(F)c1 (some centres undefined)
EC50 [1]: 3.55 µM

O=C(OC1CN2CCC1CC2)N1CCc2ccccc2[C@@H]1c1cccc(F)c1F (some centres undefined)
EC50 [1]: 1.11 µM

O=C(NC1CN2CCC1CC2)N1CCc2ccccc2[C@@H]1c1ccc(F)cc1 (some centres undefined)
Papp A→B [5]: 0.95 ×10⁻⁶ cm/s
solubility [6]: 5960 µM (≈ 2260 µg/mL)
EC50 [1]: 0.265 µM
IC50 [14]: 10 µM

O=C(OCCC12CCN(CC1)CC2)N1CCc2ccccc2[C@@H]1c1ccc(F)cc1
EC50 [1]: > 10 µM

O=C(NC1CN2CCC1CC2)C(=O)N1CCc2ccccc2[C@@H]1c1ccc(F)cc1 (some centres undefined)
EC50 [1]: 1.61 µM

O=C(COC1CN2CCC1CC2)N1CCc2ccccc2[C@@H]1c1ccc(F)cc1 (some centres undefined)
EC50 [1]: 0.811 µM

O=C(OC1CN2CCC1CC2)N1CCc2ccccc2[C@@H]1c1ccc(Cl)cc1 (some centres undefined)
EC50 [1]: 0.339 µM
IC50 [14]: 1.48 µM

O=C(OC1CN2CCC1CC2)N1CCc2ccccc2[C@@H]1c1ccc(OC2CC2)cc1 (some centres undefined)
EC50 [1]: > 10 µM

CC1(C)C(OC(=O)N2CCc3ccccc3[C@@H]2c2ccc(F)cc2)C2CCN1CC2 (some centres undefined)
EC50 [1]: 0.574 µM

O=C(OC1CN2CCC1CC2)N1CCc2ccccc2[C@@H]1c1ccc(F)c(F)c1 (some centres undefined)
EC50 [1]: 2.03 µM
IC50 [14]: 10 µM

CN(C(=O)N1CCc2ccccc2[C@@H]1c1ccc(F)cc1)C1CN2CCC1CC2 (some centres undefined)
EC50 [1]: 1.03 µM

C[C@]1(c2ccc(F)cc2)c2ccccc2CCN1C(=O)OC1CN2CCC1CC2 (some centres undefined)
EC50 [1]: 3.46 µM

Fc1ccc([C@@H]2c3ccccc3CCN2CCC2CN3CCC2CC3)cc1 (some centres undefined)
EC50 [1]: > 10 µM

O=C(OCC12CCN(CC1)CC2)N1CCc2ccccc2[C@H]1c1ccc(F)cc1
bioavailability [2]: 16%
CLH [3]: 0.0397 mL/min/kg
half-life [29]: 6.4 min
fraction unbound [4]: 0.096
Papp A→B [5]: 3.01 ×10⁻⁶ cm/s
solubility [6]: 2670 µM (≈ 1050 µg/mL)
half-life [7]: 17 min
bioavailability [8]: 41%
EC50 [1]: 0.146 µM
fraction unbound [9]: 0.007
fraction unbound [10]: 0.048
Kp uu at 8 h [11]: 0.4
half-life [12]: 5.2 min
Cmax [13]: 17 nM
half-life [15]: 2.2 min
fraction unbound [16]: 0.086
Vd [17]: 16.2 L/kg
clearance [30]: 20.7 mL/min/kg
bioavailability [31]: 42%
fraction unbound [32]: 0.176
half-life [18]: 198 min
half-life [19]: 2.9 min
CLH [20]: 0.0318 mL/min/kg
half-life [33]: 6.8 min
fraction unbound [21]: 0.008
clearance [22]: 51.8 mL/min/kg
Vd [23]: 7.23 L/kg
half-life [24]: 22 min
Vd [34]: 9.6 L/kg
Cmax [35]: 32 nM
clearance [25]: 102 mL/min/kg
Kp uu at 8 h [26]: 0.09
Kp uu at 8 h [36]: 0.33
half-life [27]: 2.2 min
Cmax [28]: 30 nM

O=C(OC1CN2CCC1CC2)N1CCc2ccccc2[C@H]1c1ccc(F)cc1 (some centres undefined)
EC50 [1]: > 10 µM

COc1ccc([C@H]2c3ccccc3CCN2C(=O)OC2CN3CCC2CC3)cc1 (some centres undefined)
EC50 [1]: 2.87 µM

O=C(CC1CN2CCC1CC2)N1CCc2ccccc2[C@@H]1c1ccc(F)cc1 (some centres undefined)
Papp A→B [5]: 2.68 ×10⁻⁶ cm/s
EC50 [1]: 0.222 µM
IC50 [14]: 30 µM

O=C(OC1CN2CCC1CC2)N1CCc2ccccc2[C@@H]1c1ccc(F)cc1F (some centres undefined)
EC50 [1]: 0.247 µM
IC50 [14]: 9.4 µM

O=C(C(O)C1CN2CCC1CC2)N1CCc2ccccc2[C@@H]1c1ccc(F)cc1 (some centres undefined)
EC50 [1]: 0.895 µM

O=C(O[C@@H]1CN2CCC1CC2)N1CCc2ccccc2[C@@H]1c1ccccc1
EC50 [1]: 1.83 µM
IC50 [14]: 0.733 µM

O=C(OC1CN2CCC1(F)CC2)N1CCc2ccccc2C1c1ccc(F)cc1 (single isomer, unassigned)
EC50 [1]: 1.25 µM

O=C(O[C@H]1CN2CCC1CC2)N1CCc2ccccc2[C@@H]1c1ccccc1 [SOLIFENACIN]
EC50 [1]: 1.3 µM
IC50 [14]: 0.024 µM
